PubChem BioAssay AID330 (DTP/NCI, 2004)
Where “and” joins values, the source holds several entries; their conditions need not be identical. Equal entries are not always repeated. Toxic doses and inconclusive results are not listed.

Tested on: P388 leukemia ip, CD2F1 mice, survival T/C
Experiment: NCI In Vivo Anticancer Drug Screen. Data for tumor model P388 Leukemia (intraperitoneal) in CD2F1 (CDF1) mice
Details: endpoint: median survival time, higher = longer survival
Method in brief: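 Mice carrying the transplanted tumor received test compound or vehicle. Survival was recorded in each group, and the value is the treated-group measurement divided by that of the vehicle-treated control group.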

[1] = dose: 60.0 mg/kg/injection, schedule: Q01DX005 (ip), vehicle: Klucel (hydroxypropylcellulose) (HPC)
[2] = dose: 12.5 mg/kg/injection, schedule: Q01DX009 (ip), vehicle: saline with Tween-80
[3] = dose: 25.0 mg/kg/injection, schedule: Q01DX009 (ip), vehicle: saline with Tween-80
[4] = dose: 50.0 mg/kg/injection, schedule: Q01DX009 (ip), vehicle: saline with Tween-80
[5] = dose: 100.0 mg/kg/injection, schedule: Q01DX009 (ip), vehicle: saline with Tween-80
[6] = dose: 50.0 mg/kg/injection, schedule: Q01DX009 (ip), vehicle: saline
[7] = dose: 100.0 mg/kg/injection, schedule: Q01DX009 (ip), vehicle: saline
[8] = dose: 200.0 mg/kg/injection, schedule: Q01DX009 (ip), vehicle: saline
[9] = dose: 100.0 mg/kg/injection, schedule: Q04DX003 (ip), vehicle: Klucel (hydroxypropylcellulose) (HPC)
[10] = dose: 200.0 mg/kg/injection, schedule: Q04DX003 (ip), vehicle: Klucel (hydroxypropylcellulose) (HPC)
[11] = dose: 400.0 mg/kg/injection, schedule: Q04DX003 (ip), vehicle: Klucel (hydroxypropylcellulose) (HPC)
[12] = dose: 100.0 mg/kg/injection, schedule: Q04DX003 (ip), vehicle: saline
[13] = dose: 200.0 mg/kg/injection, schedule: Q04DX003 (ip), vehicle: saline
[14] = dose: 400.0 mg/kg/injection, schedule: Q04DX003 (ip), vehicle: saline
[15] = dose: 60.0 mg/kg/injection, schedule: Q01DX005 (ip), vehicle: saline with Tween-80
[16] = dose: 120.0 mg/kg/injection, schedule: Q01DX005 (ip), vehicle: saline with Tween-80
[17] = dose: 240.0 mg/kg/injection, schedule: Q01DX005 (ip), vehicle: saline with Tween-80

`COC(=O)c1nc(N)nc(C(=O)OC)c1C(=O)c1cccc2ccccc12` was tested, and the T/C [1] was 99 % of control and the T/C (dose: 120.0 mg/kg/injection, schedule: Q01DX005 (ip), vehicle: Klucel (hydroxypropylcellulose) (HPC)) was 100 % of control.
`CNc1ccccc1C(=O)N/N=C/C=C/c1ccccc1` was tested, and the T/C [2] was 102 % of control, the T/C [3] was 105 % of control and the T/C [4] was 104 % of control. The T/C [5] was 118 % of control.
In the case of `COSc1ccc([N+](=O)[O-])cc1[N+](=O)[O-]`, the T/C [2] is reported as 95 % of control, the T/C [3] is reported as 96 % of control and the T/C (dose: 25.0 mg/kg/injection, schedule: Q01DX009 (ip), vehicle: saline) is reported as 98 % of control. For the same compound, the T/C [4] was 103 % of control, the T/C [6] was 102 % of control and the T/C [5] was 103 % of control. For the same compound, the T/C [7] was 108 % of control and the T/C [8] was 111 % of control.
`COc1ccc(CSC(=S)Nc2ccc(F)c(F)c2)cc1` was tested, and the T/C (dose: 50.0 mg/kg/injection, schedule: Q01DX009 (ip), vehicle: suspension in saline) was 108 % of control, the T/C (dose: 100.0 mg/kg/injection, schedule: Q01DX009 (ip), vehicle: suspension in saline) was 106 % of control and the T/C (dose: 200.0 mg/kg/injection, schedule: Q01DX009 (ip), vehicle: suspension in saline) was 99 % of control.
`O=C(NO)c1cc(O)c(O)c(O)c1` was tested, and the T/C (dose: 50.0 mg/kg/injection, schedule: Q01DX005 (ip), vehicle: distilled water + Tween-80) was 121 % of control, the T/C (dose: 100.0 mg/kg/injection, schedule: Q01DX009 (ip), vehicle: distilled water + Tween-80) was 168 % of control and the T/C (dose: 200.0 mg/kg/injection, schedule: Q01DX005 (ip), vehicle: distilled water + Tween-80) was 155 % of control. For the same compound, the T/C (dose: 200.0 mg/kg/injection, schedule: Q01DX009 (ip), vehicle: distilled water + Tween-80) was 197 % of control.
With `COc1ccc(-c2nn(-c3ccccc3)c(-c3ccc(OC)cc3)c2N=Nc2ccc(S(=O)(=O)Nc3nnc(C)s3)cc2)cc1` the T/C (dose: 100.0 mg/kg/injection, schedule: Q01DX001 (ip), vehicle: saline with Tween-80) was 100 % of control, the T/C (dose: 200.0 mg/kg/injection, schedule: Q01DX001 (ip), vehicle: saline with Tween-80) was 89 % of control and the T/C (dose: 400.0 mg/kg/injection, schedule: Q01DX001 (ip), vehicle: saline with Tween-80) was 93 % of control.
In the case of `NNc1ccc2nnc(Cl)n2n1`, the T/C (dose: 100.0 mg/kg/injection, schedule: Q04DX002 (ip), vehicle: saline) is reported as 101 % of control, the T/C (dose: 200.0 mg/kg/injection, schedule: Q04DX002 (ip), vehicle: saline) is reported as 102 % of control and the T/C (dose: 400.0 mg/kg/injection, schedule: Q04DX002 (ip), vehicle: saline) is reported as 108 % of control.
`O=[N+]([O-])c1ccc(C2CC3COc4ccccc4C3=N2)cc1` (stereo not drawn) was tested, and the T/C (dose: 18.75 mg/kg/injection, schedule: Q01DX001 (ip), vehicle: Klucel (hydroxypropylcellulose) (HPC)) was 88 % of control, the T/C (dose: 37.5 mg/kg/injection, schedule: Q01DX001 (ip), vehicle: Klucel (hydroxypropylcellulose) (HPC)) was 88 % of control and the T/C (dose: 75.0 mg/kg/injection, schedule: Q01DX001 (ip), vehicle: Klucel (hydroxypropylcellulose) (HPC)) was 94 % of control.
In the case of `Clc1ccc(CN2COc3c(ccc4cccnc34)C2)c(Cl)c1`, the T/C [9] is reported as 95 % of control, the T/C [10] is reported as 104 % of control and the T/C [11] is reported as 117 % of control.
`NNC(=O)C(NC(=O)c1ccccc1)C(N)=O` (stereo not drawn) was tested, and the T/C [12] was 95 % of control, the T/C [13] was 95 % of control and the T/C [14] was 94 % of control.
For `CC(C)(C(N=Cc1ccccc1)c1ccccc1)[N+](=O)[O-]` (stereo not drawn), the T/C [15] was 100 % of control, the T/C [16] was 98 % of control and the T/C [17] was 99 % of control.
`CC1=CC(=O)C=C(C)C1=O` was tested, and the T/C (dose: 1.56 mg/kg/injection, schedule: Q04DX003 (ip), vehicle: saline with Tween-80) was 106 % of control, the T/C (dose: 3.12 mg/kg/injection, schedule: Q04DX003 (ip), vehicle: saline with Tween-80) was 89 % of control and the T/C (dose: 6.25 mg/kg/injection, schedule: Q04DX003 (ip), vehicle: saline with Tween-80) was 103 % of control.
With `CC(=O)N(OS(C)(=O)=O)C1CCCCC1` the T/C (dose: 50.0 mg/kg/injection, schedule: Q01DX007 (ip), vehicle: saline with Tween-80) was 92 % of control, the T/C (dose: 100.0 mg/kg/injection, schedule: Q01DX007 (ip), vehicle: saline with Tween-80) was 100 % of control and the T/C (dose: 200.0 mg/kg/injection, schedule: Q01DX007 (ip), vehicle: saline with Tween-80) was 90 % of control.
For `CCC[CH2][Sn]([CH2]CCC)([CH2]CCN(C)C)[CH2]CCN(C)C`, the T/C [4] was 97 % of control and the T/C [5] was 104 % of control.
For `C=C1C(=O)OC2C1C(OC(=O)/C(=C/CO)CO)CC1(CO1)C1CC=C(C)C21` (stereo not drawn), the T/C (dose: 0.94 mg/kg/injection, schedule: Q01DX005 (ip), vehicle: Klucel (hydroxypropylcellulose) (HPC)) was 111 % of control, the T/C (dose: 1.87 mg/kg/injection, schedule: Q01DX005 (ip), vehicle: Klucel (hydroxypropylcellulose) (HPC)) was 107 % of control and the T/C (dose: 3.75 mg/kg/injection, schedule: Q01DX005 (ip), vehicle: Klucel (hydroxypropylcellulose) (HPC)) was 108 % of control.
`O=c1oc2ccccc2cc1-n1nnc2ccccc21` was tested, and the T/C [15] was 98 % of control, the T/C [16] was 90 % of control and the T/C [17] was 90 % of control.
With `C[n+]1cccc(Oc2ccc[n+](C)c2)c1` the T/C [15] was 100 % of control, the T/C [16] was 99 % of control and the T/C [17] was 109 % of control.
With `C1CSCCSCCCSCCSC1` the T/C [3] was 91 % of control, the T/C [4] was 106 % of control and 90 % of control and the T/C [5] was 91 % of control and 92 % of control. The T/C (dose: 200.0 mg/kg/injection, schedule: Q01DX009 (ip), vehicle: saline with Tween-80) was 96 % of control and the T/C (dose: 400.0 mg/kg/injection, schedule: Q01DX009 (ip), vehicle: saline with Tween-80) was 91 % of control.
For `O=C(c1ccccc1)C(c1ccccc1)n1ncc2c1CCC2` (stereo not drawn), the T/C [9] was 105 % of control, the T/C [10] was 100 % of control and the T/C [11] was 103 % of control.
With `O=C(O)c1cccnc1C(=O)O` the T/C [6] was 105 % of control, the T/C [7] was 96 % of control and 100 % of control and 111 % of control and the T/C [8] was 86 % of control and 102 % of control and 97 % of control. For the same compound, the T/C (dose: 400.0 mg/kg/injection, schedule: Q01DX009 (ip), vehicle: saline) was 100 % of control and 90 % of control.
In the case of `Clc1ccc(-c2csc(NCC3CCCO3)n2)cc1` (stereo not drawn), the T/C (dose: 50.0 mg/kg/injection, schedule: Q01DX009 (ip), vehicle: Klucel (hydroxypropylcellulose) (HPC)) is reported as 100 % of control, the T/C (dose: 100.0 mg/kg/injection, schedule: Q01DX009 (ip), vehicle: Klucel (hydroxypropylcellulose) (HPC)) is reported as 108 % of control and the T/C (dose: 200.0 mg/kg/injection, schedule: Q01DX009 (ip), vehicle: Klucel (hydroxypropylcellulose) (HPC)) is reported as 100 % of control.
In the case of `O=C(O)c1c[nH]c2cc(OCCOc3ccc4ccccc4c3)ccc2c1=O`, the T/C [12] is reported as 99 % of control, the T/C [13] is reported as 88 % of control and the T/C [14] is reported as 94 % of control.
In the case of `CCC1=C(C)CCN(C)C1Cc1ccc(OC)cc1` (stereo not drawn), the T/C (dose: 15.0 mg/kg/injection, schedule: Q01DX005 (ip), vehicle: Klucel (hydroxypropylcellulose) (HPC)) is reported as 106 % of control, the T/C (dose: 30.0 mg/kg/injection, schedule: Q01DX005 (ip), vehicle: Klucel (hydroxypropylcellulose) (HPC)) is reported as 98 % of control and the T/C [1] is reported as 100 % of control and 102 % of control.
In the case of `COc1ccc(/C=C2\CCn3c2nc2ccccc2c3=O)cc1`, the T/C (dose: 89.75 mg/kg/injection, schedule: Q04DX002 (ip), vehicle: Klucel (hydroxypropylcellulose) (HPC)) is reported as 103 % of control, the T/C (dose: 179.5 mg/kg/injection, schedule: Q04DX002 (ip), vehicle: Klucel (hydroxypropylcellulose) (HPC)) is reported as 102 % of control and the T/C (dose: 359.0 mg/kg/injection, schedule: Q04DX002 (ip), vehicle: Klucel (hydroxypropylcellulose) (HPC)) is reported as 102 % of control.
For `ClC(Cl)(Cl)c1nc2nccnc2[nH]1`, the T/C (dose: 6.25 mg/kg/injection, schedule: Q01DX009 (ip), vehicle: saline with Tween-80) was 88 % of control, the T/C [2] was 100 % of control and the T/C [3] was 107 % of control and 90 % of control.
